SMILES strings stand for the structures.

The nature of series [1]: Highest frequency of acute liver toxicity observed during clinical trials, expressed as a percentage. [column '% AIGUE' in source]. As to conditions: human.
The conditions of series [2]: human, serum, 4383 h.
For series [3] the following is noted: human.
The conditions of series [4]: human. The source holds these as a separate data set.
For series [5] the following is noted: human. This is another data set of the same source.
The conditions of series [6]: human, serum.
The conditions of series [7]: human. This is another data set of the same source.
Series [8] in a line: Times to onset, minimal and maximal, observed in the indexed observations. [column 'DELAI' in source]. As to conditions: human.
For series [9] the following is noted: human. The source holds these as a separate data set.
For series [10] the following is noted: human, serum. This is another data set of the same source.
For series [11] the following is noted: human. The source holds these as a separate data set.
The nature of series [12]: Highest frequency of moderate liver toxicity observed during clinical trials, expressed as a percentage. [column '% BIOL' in source]. The conditions noted are these: human.
For series [13] the following is noted: human. The source holds these as a separate data set.
The conditions of series [14]: human. This is another data set of the same source.
The conditions of series [15]: human. The source holds these as a separate data set.
The conditions of series [16]: human. This is another data set of the same source.
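For Hepatotoxicity (association with vascular disease) in this document: count of indexed literature references reporting vascular liver injury in humans, e.g. peliosis hepatitis, hepatic veno-occlusive disease or Budd-Chiari syndrome.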
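For Hepatotoxicity (benign tumour) in this document: value is a count of indexed literature references citing a benign tumour confirmed by histopathology.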
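For Hepatotoxicity (choleostasis) in this document: human cholestatic liver injury, shown by histopathology or by peak ALT or AST elevation over alkaline phosphatase ratio below 2, value counts indexed literature reports.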
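For Hepatotoxicity (chronic liver disease) in this document: chronic liver injury confirmed by histopathology or persistently raised serum aminotransferase activity beyond 6 months, value given as the count of indexed literature references.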
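For Hepatotoxicity (cirrhosis) in this document: value is a count of indexed literature references reporting cirrhosis confirmed by histopathology.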
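For Hepatotoxicity (cytolytic) in this document: human cytolytic liver injury, shown by histopathology or by a ratio above 5 of peak ALT or AST elevation to alkaline phosphatase elevation, value counts indexed references.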
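For Hepatotoxicity (granulomatous hepatitis) in this document: value is a count of indexed literature references reporting granulomatous liver disease confirmed by histopathology.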
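For Hepatotoxicity (malignant tumour) in this document: malignant tumour confirmed by histopathology, value gives the count of indexed literature references reporting it.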
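For Hepatotoxicity (severe hepatitis) in this document: human clinical data: severe hepatitis, meaning potentially life-threatening liver failure or clinically observed cases, the value counts how many indexed literature references report it.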
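For Hepatotoxicity (steatosis) in this document: steatosis confirmed by histopathology, value is the count of indexed references.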

`N[C@@H](Cc1cc(I)c(Oc2cc(I)c(O)c(I)c2)c(I)c1)C(=O)O` [LEVOTHYROXINE]: the “Hepatotoxicity (acute)” value in series [1] was found to be 0%; in series [6], 1. For the same molecule, the “Hepatotoxicity (chronic liver disease)” value in series [2] is listed as 0. Moreover, in series [3], the “Hepatotoxicity (granulomatous hepatitis)” value was found to be 0. In addition, the “Hepatotoxicity (benign tumour)” value in [4] is reported as 0. In addition, the “Hepatotoxicity (association with vascular disease)” value in series [5] came to 0. Also, the “Hepatotoxicity (steatosis)” value in [7] came to 0. Besides, the “Hepatotoxicity (time to onset)” value in series [8] came out at 12 days - 4 years. In [9], the “Hepatotoxicity (cirrhosis)” value stood at 1. Moreover, the “Hepatotoxicity (moderate)” value in series [10] worked out at 1; in [12] it was 0%. Besides, the “Hepatotoxicity (choleostasis)” value in series [11] is 0. Besides, the “Hepatotoxicity (malignant tumour)” value in series [13] is reported as 0. In addition, the “Hepatotoxicity (cytolytic)” value in [14] is given as 0. Further, in series [15], the “Hepatotoxicity (animal toxicity known)” value was “yes”. Besides, the “Hepatotoxicity (severe hepatitis)” value in [16] is given as 0.

Turning to `Cl[C@H]1[C@H](Cl)[C@@H](Cl)[C@@H](Cl)[C@H](Cl)[C@H]1Cl` [LINDANE], the results for the “Hepatotoxicity (acute)” value in series [1] (Liver) and in series [6] were 0% and 2, respectively. Further, the “Hepatotoxicity (chronic liver disease)” value in series [2] is recorded as 0. Also, the “Hepatotoxicity (granulomatous hepatitis)” value in series [3] (Liver) came to 0. For the same molecule, in [4], the “Hepatotoxicity (benign tumour)” value is listed as 0. In [5], the “Hepatotoxicity (association with vascular disease)” value stood at 0. The “Hepatotoxicity (steatosis)” value in [7] is 0. Besides, in [8], the “Hepatotoxicity (time to onset)” value is recorded as 3 weeks. For the same molecule, in [9], the “Hepatotoxicity (cirrhosis)” value was 0. For the same molecule, the “Hepatotoxicity (moderate)” value in series [10] amounted to 0; in series [12] (Liver), 0%. In [11] (Liver), the “Hepatotoxicity (choleostasis)” value stood at 0. The “Hepatotoxicity (malignant tumour)” value in series [13] was determined as 0. For the same molecule, the “Hepatotoxicity (cytolytic)” value in series [14] (Liver) is reported as 1. For the same molecule, the “Hepatotoxicity (animal toxicity known)” value in series [15] is listed as “yes”. In addition, in [16] (Liver), the “Hepatotoxicity (severe hepatitis)” value was 0.

For `O=NN(CCCl)C(=O)NC1CCCCC1` [LOMUSTINE], the “Hepatotoxicity (acute)” value in [1] came out at 0%; in series [6], 2. Also, the “Hepatotoxicity (chronic liver disease)” value in series [2] is 0. Also, in series [3], the “Hepatotoxicity (granulomatous hepatitis)” value stood at 0. Besides, the “Hepatotoxicity (benign tumour)” value in [4] was 0. Also, the “Hepatotoxicity (association with vascular disease)” value in series [5] is listed as 0. Moreover, the “Hepatotoxicity (steatosis)” value in series [7] was 0. For the same molecule, the “Hepatotoxicity (time to onset)” value in series [8] was 2 days - 4 months. In addition, the “Hepatotoxicity (cirrhosis)” value in series [9] was determined as 0. For the same molecule, the “Hepatotoxicity (moderate)” value was 4 in [10] and 39% in [12]. Further, in series [11], the “Hepatotoxicity (choleostasis)” value is on record as 2. In addition, the “Hepatotoxicity (malignant tumour)” value in [13] is given as 0. Moreover, the “Hepatotoxicity (cytolytic)” value in [14] turned out to be 1. Besides, the “Hepatotoxicity (animal toxicity known)” value in [15] is reported as “yes”. The “Hepatotoxicity (severe hepatitis)” value in [16] worked out at 1.

Turning to `OC(c1cc(C(F)(F)F)nc2c(C(F)(F)F)cccc12)C1CCCCN1` (stereo not given) [MEFLOQUINE], the “Hepatotoxicity (acute)” value in series [1] came to 0%; in [6], 2. Further, in [2], the “Hepatotoxicity (chronic liver disease)” value is on record as 0. For the same molecule, in series [3], the “Hepatotoxicity (granulomatous hepatitis)” value is reported as 0. Also, in series [4], the “Hepatotoxicity (benign tumour)” value is listed as 0. In addition, in series [5], the “Hepatotoxicity (association with vascular disease)” value turned out to be 0. Besides, the “Hepatotoxicity (steatosis)” value in [7] is 1. In addition, in series [8], the “Hepatotoxicity (time to onset)” value is on record as 2 weeks - 3 weeks. In addition, the “Hepatotoxicity (cirrhosis)” value in series [9] is listed as 0. Also, the “Hepatotoxicity (moderate)” value in [10] stood at 5; in [12], 22.5%. In series [11], the “Hepatotoxicity (choleostasis)” value was 0. For the same molecule, in series [13], the “Hepatotoxicity (malignant tumour)” value is listed as 0. For the same molecule, the “Hepatotoxicity (cytolytic)” value in series [14] is reported as 1. The “Hepatotoxicity (animal toxicity known)” value in [15] is recorded as “yes”. Moreover, the “Hepatotoxicity (severe hepatitis)” value in series [16] was 0.

For `[N-]=[N+]=O` [NITROUS OXIDE], the “Hepatotoxicity (acute)” value in series [1] turned out to be 0%; in series [6], 1. Further, the “Hepatotoxicity (chronic liver disease)” value in series [2] was 0. Further, the “Hepatotoxicity (granulomatous hepatitis)” value in [3] came to 0. The “Hepatotoxicity (benign tumour)” value in [4] is 0. For the same molecule, in series [5], the “Hepatotoxicity (association with vascular disease)” value came to 0. The “Hepatotoxicity (steatosis)” value in series [7] is listed as 0. In addition, the “Hepatotoxicity (time to onset)” value in series [8] is 9 days. For the same molecule, the “Hepatotoxicity (cirrhosis)” value in [9] was determined as 0. For the same molecule, the “Hepatotoxicity (moderate)” value in series [10] turned out to be 1; in series [12] it was 0%. In series [11], the “Hepatotoxicity (choleostasis)” value was 0. Further, the “Hepatotoxicity (malignant tumour)” value in [13] is 0. The “Hepatotoxicity (cytolytic)” value in series [14] worked out at 1. In addition, in series [15], the “Hepatotoxicity (animal toxicity known)” value is given as “yes”. Further, the “Hepatotoxicity (severe hepatitis)” value in series [16] is listed as 0.

Regarding `CNCCC=C1c2ccccc2CCc2ccccc21` [NORTRIPTYLINE], the figures for the “Hepatotoxicity (acute)” value in [1] (Liver) and in [6] were 0% and 2, respectively. Also, the “Hepatotoxicity (chronic liver disease)” value in [2] worked out at 0. The “Hepatotoxicity (granulomatous hepatitis)” value in series [3] (Liver) is listed as 0. Besides, in series [4], the “Hepatotoxicity (benign tumour)” value is recorded as 0. Besides, the “Hepatotoxicity (association with vascular disease)” value in [5] came out at 0. In addition, the “Hepatotoxicity (steatosis)” value in [7] is listed as 0. The “Hepatotoxicity (time to onset)” value in series [8] is reported as 2 months - 3 months. For the same molecule, the “Hepatotoxicity (cirrhosis)” value in series [9] amounted to 0. For the same molecule, the “Hepatotoxicity (moderate)” value was 1 in series [10] and 0% in series [12] (Liver). For the same molecule, the “Hepatotoxicity (choleostasis)” value in [11] (Liver) came out at 0. In [13], the “Hepatotoxicity (malignant tumour)” value turned out to be 0. For the same molecule, in [14] (Liver), the “Hepatotoxicity (cytolytic)” value turned out to be 2. In series [15], the “Hepatotoxicity (animal toxicity known)” value was “yes”. For the same molecule, the “Hepatotoxicity (severe hepatitis)” value in [16] (Liver) stood at 2.

Turning to `NNCCc1ccccc1` [PHENELZINE], the results for the “Hepatotoxicity (acute)” value in series [1] (Liver) and in [6] were 0% and 6, respectively. In series [2], the “Hepatotoxicity (chronic liver disease)” value stood at 0. Also, in series [3] (Liver), the “Hepatotoxicity (granulomatous hepatitis)” value is reported as 0. Also, the “Hepatotoxicity (benign tumour)” value in series [4] came out at 0. For the same molecule, the “Hepatotoxicity (association with vascular disease)” value in series [5] is listed as 0. In addition, the “Hepatotoxicity (steatosis)” value in series [7] worked out at 0. Besides, the “Hepatotoxicity (time to onset)” value in series [8] is listed as 3 weeks - 5 months. Also, the “Hepatotoxicity (cirrhosis)” value in [9] stood at 1. In addition, the “Hepatotoxicity (moderate)” value in [10] is reported as 1; in series [12] (Liver), 0%. For the same molecule, the “Hepatotoxicity (choleostasis)” value in [11] (Liver) was 0. The “Hepatotoxicity (malignant tumour)” value in [13] was 1. In [14] (Liver), the “Hepatotoxicity (cytolytic)” value is listed as 6. Further, in series [15], the “Hepatotoxicity (animal toxicity known)” value is on record as “yes”. In addition, in series [16] (Liver), the “Hepatotoxicity (severe hepatitis)” value was determined as 7.

Consider `COC(=O)[C@H]1[C@H]2C[C@@H]3c4[nH]c5cc(OC)ccc5c4CCN3C[C@H]2C[C@@H](OC(=O)c2cc(OC)c(OC)c(OC)c2)[C@@H]1OC` [RESERPINE], for which the “Hepatotoxicity (acute)” value in series [1] is reported as 0%; in series [6], 3. Moreover, in [2], the “Hepatotoxicity (chronic liver disease)” value was determined as 0. Moreover, the “Hepatotoxicity (granulomatous hepatitis)” value in [3] was determined as 0. In series [4], the “Hepatotoxicity (benign tumour)” value was found to be 0. In [5], the “Hepatotoxicity (association with vascular disease)” value came to 0. For the same molecule, the “Hepatotoxicity (steatosis)” value in [7] is given as 0. Moreover, the “Hepatotoxicity (time to onset)” value in [8] is on record as 1 year. Moreover, the “Hepatotoxicity (cirrhosis)” value in series [9] is 0. Besides, the “Hepatotoxicity (moderate)” value in series [10] is 0; in [12], 0%. Further, the “Hepatotoxicity (choleostasis)” value in [11] turned out to be 1. Also, in [13], the “Hepatotoxicity (malignant tumour)” value is 0. Besides, the “Hepatotoxicity (cytolytic)” value in [14] stood at 0. In addition, the “Hepatotoxicity (animal toxicity known)” value in series [15] was “yes”. Besides, in series [16], the “Hepatotoxicity (severe hepatitis)” value came to 0.

Consider `CN(C)[C@@H]1C(O)=C(C(=O)NCN2CCCC2)C(=O)[C@@]2(O)C(O)=C3C(=O)c4c(O)cccc4[C@@](C)(O)[C@H]3C[C@@H]12` [ROLITETRACYCLINE], for which the “Hepatotoxicity (acute)” value in series [1] is reported as 0%; in series [6], 1. The “Hepatotoxicity (chronic liver disease)” value in series [2] was determined as 0. The “Hepatotoxicity (granulomatous hepatitis)” value in series [3] is 0. Further, in series [4], the “Hepatotoxicity (benign tumour)” value was 0. In addition, in series [5], the “Hepatotoxicity (association with vascular disease)” value was 0. Also, in series [7], the “Hepatotoxicity (steatosis)” value is given as 0. For the same molecule, in series [8], the “Hepatotoxicity (time to onset)” value worked out at 2 days. Further, in series [9], the “Hepatotoxicity (cirrhosis)” value was found to be 0. The “Hepatotoxicity (moderate)” value in series [10] is 0; in series [12], 0%. Also, the “Hepatotoxicity (choleostasis)” value in [11] is reported as 0. Also, the “Hepatotoxicity (malignant tumour)” value in series [13] came to 0. In addition, the “Hepatotoxicity (cytolytic)” value in series [14] was 1. Moreover, the “Hepatotoxicity (animal toxicity known)” value in [15] is listed as “yes”. Also, in series [16], the “Hepatotoxicity (severe hepatitis)” value is 1.

As for `N=C(N)c1ccc(/C=C/c2ccc(C(=N)N)cc2)cc1` [STILBAMIDINE], the figures for the “Hepatotoxicity (acute)” value in [1] and in [6] were 0% and 1, respectively. Besides, the “Hepatotoxicity (chronic liver disease)” value in [2] stood at 0. In addition, the “Hepatotoxicity (granulomatous hepatitis)” value in series [3] is 0. In addition, the “Hepatotoxicity (benign tumour)” value in series [4] came out at 0. Besides, the “Hepatotoxicity (association with vascular disease)” value in series [5] is given as 0. The “Hepatotoxicity (steatosis)” value in [7] came out at 0. Moreover, in series [8], the “Hepatotoxicity (time to onset)” value amounted to 1 month - 3 months. The “Hepatotoxicity (cirrhosis)” value in [9] is given as 0. For the same molecule, the “Hepatotoxicity (moderate)” value in series [10] was found to be 0; in [12], 0%. For the same molecule, the “Hepatotoxicity (choleostasis)” value in [11] was 0. Moreover, in [13], the “Hepatotoxicity (malignant tumour)” value is reported as 0. The “Hepatotoxicity (cytolytic)” value in series [14] turned out to be 1. Further, the “Hepatotoxicity (animal toxicity known)” value in [15] is listed as “yes”. The “Hepatotoxicity (severe hepatitis)” value in series [16] was 0.

For the origin of these results see ChEMBL document CHEMBL3137667, “[Drug-induced liver injury; fourteenth updated edition of the bibliographic database of liver injuries and related drugs]” (Gastroenterol Clin Biol, 2004).
